In assay [1] the test system is TNFα release from human peripheral blood mononuclear cells. The assay is described as follows: Inhibition of TNFα release from LPS-stimulated human peripheral blood mononuclear cells (TNFα screen). It is filed as cell-based. The following applies: 18 hours incubation, TNFα in supernatant by ELISA. As to the method: Venous blood is collected from healthy volunteers and the mononuclear cells purified by centrifugation through Histopaque (Ficoll) cushions. TNFα production from these cells is stimulated by addition of lipopolysaccharide. After 18 hours incubation in the presence of LPS, the cell supernatant is removed and the concentration of TNFα in the supernatant determined by ELISA.
(§1) Data are presented below for the Examples in which the TNFα and PDE4 inhibition are presented as IC50 values in nM.

In assay [2] the test system is PDE4. The assay is described as follows: PDE4 inhibition: hydrolysis of tritium labelled cAMP to AMP, SPA bead scintillation counting. It is filed as biochemical. As to conditions: tritium labelled cAMP incubated with PDE4, yttrium silicate SPA beads. As to the method:
The PDE4 inhibitory activity of the nicotinamide derivatives of the formula (I) is determined by the ability of compounds to inhibit the hydrolysis of cAMP to AMP by PDE4 (Thompson J W, Teraski W L, Epstein P M, Strada S J., “Assay of nucleotidephosphodiesterase and resolution of multiple molecular forms of the isoenzyme”, Advances in cyclic nucleotides research, edited by Brooker G, Greengard P, Robinson G A. Raven Press, New York 1979, 10, p. 69-92). Tritium labelled cAMP is incubated with PDE4. Following incubation, the radiolabelled AMP produced is able to bind yttrium silicate SPA beads. These SPA beads subsequently produce light that can be quantified by scintillation counting. The addition of a PDE4 inhibitor prevents the formation of AMP from cAMP and counts are diminished. The IC50 of a PDE4 inhibitor can be defined as the concentration of a compound that leads to a 50% reduction in counts compared to the PDE4 only (no inhibitor) control wells.
as §1

pIC50: −log10 of the molar value.

As for `Cc1cc(C(=O)N[C@H]2CC[C@@H](NC(=O)c3cc(F)cnc3OC3CCSCC3)CC2)nn1C` [Example 42], the pIC50 in assay [1] (PBMC) was 10.70; in assay [2], 9.52.
Regarding `Cc1cc(C(=O)N[C@H]2CC[C@@H](NC(=O)c3cc(F)cnc3OC3CCSCC3)CC2)nn1CCO` [Example 52, Syn-5-Fluoro-N-(4-{[1-(2-hydroxy-ethyl)-5-methyl-1H-pyrazole-3-carbonyl]-amino}-cyclohexyl)-2-(tetrahydro-thiopyran-4-yloxy)-nicotinamide], the pIC50 in assay [1] (PBMC) is 10.52.
The same measure, in the same setting: to `O=C(N[C@H]1CC[C@@H](NC(=O)c2nn(CCO)c3ccccc23)CC1)c1cc(F)cnc1OC1CCSCC1` [Example 53, Syn-1-(2-Hydroxy-ethyl)-1H-indazole-3-carboxylic acid (4-{[5-fluoro-2-(tetrahydro-thiopyran-4-yloxy)-pyridine-3-carbonyl]-amino}-cyclohexyl)-amide] belongs 11.00; to `CCc1cc(C(=O)N[C@H]2CC[C@@H](NC(=O)c3cc(F)cnc3OC3CCSCC3)CC2)nn1CCO` [Example 54, Syn-N-(4-{[5-Ethyl-1-(2-hydroxy-ethyl)-1H-pyrazole-3-carbonyl]-amino}-cyclohexyl)-5-fluoro-2-(tetrahydro-thiopyran-4-yloxy)-nicotinamide], 10.00.
The same measure, in the same setting: to `CCc1cc(C(=O)N[C@H]2CC[C@@H](NC(=O)c3cc(F)cnc3OC3CCSCC3)CC2)n(CCO)n1` [Example 55, Syn-N-(4-{[5-Ethyl-2-(2-hydroxy-ethyl)-2H-pyrazole-3-carbonyl]-amino}-cyclohexyl)-5-fluoro-2-(tetrahydro-thiopyran-4-yloxy)-nicotinamide] belongs 7.77; to `CC(C)c1cc(C(=O)N[C@H]2CC[C@@H](NC(=O)c3cc(F)cnc3OC3CCSCC3)CC2)n(CCO)n1` [Example 56, Syn-5-Fluoro-N-(4-{[2-(2-hydroxy-ethyl)-5-isopropyl-2H-pyrazole-3-carbonyl]-amino}-cyclohexyl)-2-(tetrahydro-thiopyran-4-yloxy)-nicotinamide], 7.70; to `CC(C)c1cc(C(=O)N[C@H]2CC[C@@H](NC(=O)c3cc(F)cnc3OC3CCSCC3)CC2)nn1CCO` [Example 57, Syn-5-Fluoro-N-(4-{[1-(2-hydroxy-ethyl)-5-isopropyl-1H-pyrazole-3-carbonyl]-amino}-cyclohexyl)-2-(tetrahydro-thiopyran-4-yloxy)-nicotinamide], 10.15.
Still for that read-out and setting: to `O=C(N[C@H]1CC[C@@H](NC(=O)c2cc(F)cnc2OC2CCSCC2)CC1)c1ccc(O)cc1O` [Example 58, Syn-N-[4-(2,4-Dihydroxy-benzoylamino)-cyclohexyl]-5-fluoro-2-(tetrahydro-thiopyran-4-yloxy)-nicotinamide] belongs 9.00; to `Cc1cnc2c(C(=O)N[C@H]3CC[C@@H](NC(=O)c4cc(F)cnc4OC4CCSCC4)CC3)cccn12` [Example 60, Syn-3-Methyl-imidazo[1,2a]pyridine-8-carboxylic acid (4-{[5-fluoro-2-(tetrahydro-thiopyran-4-yloxy)-pyridine-3-carbonyl]-amino}-cyclohexyl)-amide], 10.22.
Regarding `O=C(N[C@H]1CC[C@@H](NC(=O)c2cc(Cl)cnc2OC2CCSCC2)CC1)c1cc(CO)ccc1O` [Example 61, Syn-5-Chloro-N-[4-(2-hydroxy-5-hydroxymethyl-benzoylamino)-cyclohexyl]-2-(tetrahydro-thiopyran-4-yloxy)-nicotinamide], the pIC50 in assay [1] (PBMC) is 8.52.
Turning to `Cc1cnc(OC2CCSCC2)c(C(=O)N[C@H]2CC[C@@H](NC(=O)c3cc(CO)ccc3O)CC2)c1` [Example 62, Syn-N-[4-(2-Hydroxy-5-hydroxymethyl-benzoylamino)-cyclohexyl]-5-methyl-2-(tetrahydro-thiopyran-4-yloxy)-nicotinamide], the pIC50 in assay [1] (PBMC) is 7.92.
Take `Cc1ccc(C(=O)N[C@H]2CC[C@@H](NC(=O)c3cc(F)cnc3OC3CCSCC3)CC2)c(O)c1` [Example 63, Syn-5-Fluoro-N-[4-(2-hydroxy-4-methyl-benzoylamino)-cyclohexyl]-2-(tetrahydro-thiopyran-4-yloxy)-nicotinamide]: the pIC50 in assay [1] (PBMC) was 11.70; in assay [2] it was 9.30.
On the same counts, the results for `O=C(N[C@H]1CC[C@@H](NS(=O)(=O)c2cccc3cccnc23)CC1)c1cccnc1OC1CCSCC1` [Example 65] are 10.70 and 8.74.
For the compound `Cc1ccc(S(=O)(=O)N[C@H]2CC[C@@H](NC(=O)c3cc(F)cnc3OC3CCSCC3)CC2)cc1` [Example 69, Syn-5-Fluoro-2-(tetrahydro-thiopyran-4-yloxy)-N-[4-(toluene-4-sulfonylamino)-cyclohexyl]-nicotinamide], in assay [1] (PBMC), the pIC50 was 7.82.
Still for that read-out and setting: in the case of `Cc1ccccc1S(=O)(=O)N[C@H]1CC[C@@H](NC(=O)c2cc(F)cnc2OC2CCSCC2)CC1` [Example 70, Syn-5-Fluoro-2-(tetrahydro-thiopyran-4-yloxy)-N-[4-(toluene-2-sulfonylamino)-cyclohexyl]-nicotinamide] it was 8.70.
Take `O=C(NC1CCC(NS(=O)(=O)c2c(O)ccc3cccnc23)CC1)c1cc(F)cnc1OC1CCSCC1` (stereo not drawn) [Example 72, Syn-5-Fluoro-N-[4-(7-hydroxy-quinoline-8-sulfonylamino)-cyclohexyl]-2-(tetrahydro-thiopyran-4-yloxy)-nicotinamide]: the pIC50 in assay [1] was 12.00.
In assay [1], `O=C(NC1CCC(NS(=O)(=O)c2c(O)ccc3cccnc23)CC1)c1cccnc1OC1CCSCC1` (stereo not drawn) [Example 73, Syn-N-[4-(7-hydroxy-quinoline-8-sulfonylamino)-cyclohexyl]-2-(tetrahydro-thiopyran-4-yloxy)-nicotinamide] showed a pIC50 of 10.52.
For `O=C(N[C@H]1CC[C@@H](NS(=O)(=O)c2c(O)ccc3nsnc23)CC1)c1cc(F)cnc1OC1CCSCC1` [Example 74, Syn-5-Fluoro-N-[4-(5-hydroxy-benzo[1,2,5]thiadiazole-4-sulfonylamino)-cyclohexyl]-2-(tetrahydro-thiopyran-4-yloxy)-nicotinamide], the figures for the negative logarithm of the IC50 (pIC50) in assay [1] (PBMC) and in assay [2] were 9.00 and 8.46, respectively.
